Our source for the GI50 and TGI values is PubChem BioAssay (NCI).

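Compound exposure: 48 hours, 5 concentrations, 96-well plates. GI50 marks 50% less growth. TGI: total growth inhibition.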

Common to all, as to assay: inhibition of tumour cell growth, NCI panel, 48 h
Experiment [1] has as its system 786-0 renal.
In experiment [2] the test system is A549 NSCLC.
Experiment [3] relates to HCT-15 colon.
The subject of experiment [4] is HOP-62 NSCLC.
The test system of experiment [5] is HOP-92 NSCLC.
The subject of experiment [6] is HS 578T breast.
In experiment [7] the test system is MCF7 breast.
For experiment [8], the system named is NCI-H23 lung.
Experiment [9] deals with OVCAR-4 ovarian.
Experiment [10] relates to U251 CNS.

As for `O=C(Cc1ccc(Nc2ccnc(C(F)(F)F)c2)cc1)Nc1cc(Cl)ccc1O`, the GI50 was 21.3 µM in [1]; 15.3 µM in experiment [2]; 5.66 µM in experiment [3]; 12.5 µM in experiment [4]; 1.96 µM in experiment [5]; 3.7 µM in experiment [6]. Moreover, the GI50 was 4.99 µM in [7], 2.86 µM in experiment [8], 9.48 µM in [9] and 6.46 µM in experiment [10]. In addition, the TGI is 58.6 µM in [1]; greater than 100 µM in experiment [2]; 61 µM in experiment [3]; 32.5 µM in experiment [4]; 8.44 µM in experiment [5]; 26 µM in experiment [6]. Also, the TGI in experiment [7] is 42.8 µM; in [8], 13.3 µM; in experiment [9], 84.2 µM; in experiment [10], 23.6 µM.

`COc1ccc2c(c1)[nH]c(=O)c1c3cc(OC)c(OC)cc3cn21`: the GI50 in [1] is 0.0386 µM; in experiment [2], less than 0.01 µM; in experiment [3], less than 0.01 µM; in experiment [4], 0.0936 µM; in [5] it was 0.0272 µM; in experiment [6], less than 0.01 µM. For the same compound, the GI50 in experiment [7] is 0.0323 µM; in experiment [8], less than 0.0173 µM; in [9], 0.0384 µM; in experiment [10] it was less than 0.01 µM. Besides, the TGI in [1] was 15.3 µM; in experiment [2], 1.41 µM; in [3] it was 1.19 µM; in experiment [4], 21 µM; in [5] it was 17.4 µM; in [6], less than 0.0231 µM. The TGI came to 1.28 µM in [7], 16.4 µM in experiment [8], 4.72 µM in [9] and 1.35 µM in [10].

In the case of `O=C(Cc1csc2nc(-c3ccc(Br)cc3)cn12)N/N=C/c1ccc(Cl)cc1Cl`, the GI50 is 25.8 µM in [1]; 16.8 µM in experiment [2]; 25.5 µM in [3]; 16.6 µM in [4]; 28.2 µM in [5]; 31.8 µM in experiment [6]. Moreover, the GI50 in [7] was greater than 100 µM; in [8] it was 25.6 µM; in [9], 37.3 µM; in experiment [10] it was 20.6 µM. The TGI is 73.4 µM in experiment [1]; 37.5 µM in experiment [2]; 73.2 µM in experiment [3]; 35 µM in experiment [4]; greater than 100 µM in [5]; 89.1 µM in [6]. The TGI was greater than 100 µM in experiment [7], 56.4 µM in [8], greater than 100 µM in experiment [9] and 44.3 µM in [10].

On to `O=C(Cn1c(C(=O)c2ccc(Cl)cc2)nc(-c2ccccc2)c1-c1ccccc1)c1ccc(Cl)cc1`, for which the GI50 was greater than 100 µM in [1]; greater than 100 µM in [2]; greater than 100 µM in [3]; greater than 100 µM in [4]; 23.9 µM in experiment [5]; greater than 100 µM in experiment [6]. For the same compound, the GI50 in experiment [7], in experiment [8], in experiment [9] and in experiment [10] was greater than 100 µM each time. For the same compound, the TGI in experiment [1], in experiment [2], in experiment [3], in experiment [4], in experiment [5] and in experiment [6] was greater than 100 µM throughout. In addition, the TGI in experiment [7], in experiment [8], in [9] and in [10] was greater than 100 µM in each case.

Take `NC(=O)c1sc(-n2cnc3ccc(C(F)(F)F)cc32)cc1OCc1ccccc1Br`: the GI50 is 5.31 µM in experiment [1]; 1.57 µM in [2]; 1.42 µM in [3]; 0.916 µM in experiment [4]; 2.5 µM in experiment [5]; 4.22 µM in experiment [6]. Besides, the GI50 in [7] was 0.805 µM; in experiment [8], 1.23 µM; in [9], 3.21 µM; in experiment [10] it was 1.61 µM. Besides, the TGI was greater than 25 µM in [1]; greater than 25 µM in [2]; greater than 25 µM in [3]; greater than 10.5 µM in experiment [4]; 16.8 µM in experiment [5]; greater than 22.8 µM in experiment [6]. In addition, the TGI in experiment [7] was greater than 6.28 µM; in experiment [8], greater than 25 µM; in [9] it was greater than 25 µM; in [10], greater than 25 µM.

For the compound `CCCCCCCCNC(C)C(O)c1ccc(SC(C)C)cc1` (stereo not drawn), the GI50 in experiment [1] was 1.73 µM; in experiment [3] it was 1.7 µM; in [4] it was 1.53 µM; in experiment [5], 1.17 µM; in experiment [6], 1.98 µM; in experiment [7], 1.8 µM. The GI50 in [8] was 1.58 µM; in experiment [9] it was 1.79 µM. For the same compound, the TGI in experiment [1] turned out to be 3.34 µM; in [3], 3.29 µM; in [4] it was 2.87 µM; in experiment [5], 2.53 µM; in experiment [6] it was 4.61 µM; in [7], 3.32 µM. The figures for the TGI in experiment [8] and in [9] were 3.13 µM and 3.25 µM, respectively.

On to `CCSc1ccc([C@@H]2[C@@H](N)C(=O)N2c2cc(OC)c(OC)c(OC)c2)cc1`, for which the GI50 is 0.08 µM in experiment [1]; 0.108 µM in experiment [2]; 0.0654 µM in [3]; 0.06 µM in experiment [4]; 30.2 µM in [5]; 0.18 µM in experiment [6]. The GI50 in experiment [7] is 0.0392 µM; in experiment [8], 14.3 µM; in [9], 9.31 µM; in [10], 0.061 µM. In addition, the TGI in experiment [1], in experiment [2], in experiment [3], in [4], in experiment [5] and in experiment [6] was greater than 100 µM each time. Further, the TGI in [7], in experiment [8], in [9] and in experiment [10] was greater than 100 µM each time.

With `O=C(Nc1ccc(Oc2ccc(NC(=O)Nc3ccc([N+](=O)[O-])cc3)cc2)cc1)Nc1ccc([N+](=O)[O-])cc1`, the GI50 in [1] is 3.15 µM; in [2], 2.61 µM; in experiment [3] it was 1.91 µM; in [4], 2.64 µM; in experiment [6], 2.34 µM; in experiment [7] it was 1.68 µM. For the same compound, the GI50 in [8] was 1.23 µM; in experiment [9] it was 2.07 µM; in [10], 2.16 µM. Also, the TGI in [1] is greater than 36.2 µM; in experiment [2], greater than 78.8 µM; in experiment [3] it was 13.7 µM; in experiment [4], 7.96 µM; in [5], 2.07 µM; in experiment [6], 7.98 µM. For the same compound, the TGI was 6.22 µM in experiment [7], 30.8 µM in [8], greater than 100 µM in experiment [9] and 12.5 µM in [10].

In the case of `COc1cc(OC)c(F)c(COc2cnc(Nc3cnn(CCO)c3)nc2)c1F`, the GI50 in experiment [1] is 1.75 µM; in experiment [2], 1.37 µM; in [3] it was 0.482 µM; in experiment [4], 0.423 µM; in experiment [5] it was 0.767 µM; in [6], 0.35 µM. The GI50 was 0.417 µM in experiment [7], 1.86 µM in experiment [8], 0.617 µM in experiment [9] and 0.528 µM in experiment [10]. Also, the TGI in experiment [1] is greater than 100 µM; in experiment [2] it was greater than 100 µM; in experiment [3], greater than 100 µM; in [4] it was 4.58 µM; in experiment [5] it was 5.4 µM; in experiment [6], 3.43 µM. Also, the TGI was greater than 100 µM in experiment [7], greater than 100 µM in experiment [8], greater than 100 µM in [9] and greater than 30.8 µM in experiment [10].

Turning to `O=C(Oc1ccccc1Cl)c1ccccc1Nc1cccc(C(F)(F)F)c1`, the GI50 is 27.2 µM in [1]; 36 µM in [2]; 29.4 µM in experiment [3]; 24.6 µM in [4]; 5.81 µM in experiment [5]; 26.1 µM in [6]. Also, the GI50 was 33.9 µM in [7], 19.8 µM in experiment [8], 62.7 µM in [9] and 23.6 µM in experiment [10]. The TGI is 96.6 µM in experiment [1]; greater than 100 µM in experiment [2]; greater than 100 µM in experiment [3]; 70.5 µM in [4]; 38.2 µM in experiment [5]; 67.1 µM in [6]. For the same compound, the TGI in [7] was greater than 100 µM; in experiment [8] it was 73.7 µM; in [9], greater than 100 µM; in experiment [10] it was 58.2 µM.

Consider `CC(=O)Nc1ccc(-c2csc(Nc3cccc(-c4csc(-c5ccccc5)n4)c3)n2)cc1`, for which the GI50 was 21 µM in experiment [1]; 15.3 µM in experiment [2]; 10.3 µM in experiment [3]; greater than 50 µM in experiment [4]; 42.9 µM in experiment [5]; 37.2 µM in experiment [6]. Further, the figures for the GI50 in [7], in experiment [8] and in experiment [10] were 20 µM, 16.5 µM and 10.4 µM, respectively. For the same compound, the TGI in experiment [1], in experiment [2], in experiment [3], in [4], in experiment [5] and in [6] was greater than 50 µM throughout. Also, the TGI in [7], in experiment [8] and in [10] was greater than 50 µM in each case.

On to `O=C(NO)c1ccc(Cn2c(=O)n(-c3ccccc3)c(=O)c3ccccc32)cc1`, for which the GI50 in [1] is 1.48 µM; in experiment [2], 2.33 µM; in [4], 1.32 µM; in [5] it was 1.6 µM; in experiment [6], 1.6 µM; in [7], 1.73 µM. Further, the GI50 in experiment [9] is 1.56 µM; in experiment [10], 0.86 µM. The TGI in [1] was determined as 3.2 µM; in experiment [2], 13.6 µM; in experiment [4] it was 3.24 µM; in experiment [5], 4.18 µM; in experiment [6] it was 9.43 µM; in experiment [7] it was 60.2 µM. The TGI worked out at 18.7 µM in experiment [9] and 2.3 µM in [10].

Regarding `CC(C)C[CH2][Ge]([CH2]CC(C)C)([CH2]CC(C)C)[CH2]CC(C)C`, the GI50 in [1], in experiment [2], in [3], in experiment [4], in [6] and in [7] was greater than 100 µM each time. Moreover, the GI50 in experiment [8], in experiment [9] and in [10] was greater than 100 µM in each case. Also, the TGI in experiment [1], in experiment [2], in [3], in experiment [4], in experiment [6] and in experiment [7] was greater than 100 µM each time. Moreover, the TGI in experiment [8], in experiment [9] and in experiment [10] was greater than 100 µM throughout.

For the compound `COc1ccc2c(c1)C(=O)c1c-2c(N2CCN(C(=O)CNCCN(C)C)CC2)nc2ccccc12`, the GI50 in experiment [1] is 1.48 µM; in [2], 2.22 µM; in experiment [3] it was 2.3 µM; in [4] it was 1.86 µM; in experiment [5], 1.57 µM; in experiment [6], 2.67 µM. Besides, the results for the GI50 in experiment [7], in experiment [9] and in experiment [10] were 1.62 µM, 5.62 µM and 2.19 µM, respectively. Further, the TGI in experiment [1] came to 3.09 µM; in [2], 10.1 µM; in experiment [3] it was 5.44 µM; in [4], 4.18 µM; in experiment [5] it was 4.15 µM; in [6], 9.87 µM. In addition, the TGI turned out to be 3.11 µM in experiment [7], 16.7 µM in experiment [9] and 4.68 µM in [10].

In the case of `COc1cnc2c(c1)C(=O)c1c-2n(CCCNCCN2CCOCC2)c(=O)c2cc([N+](=O)[O-])ccc12`, the GI50 was 0.224 µM in experiment [1]; 0.297 µM in experiment [3]; 0.15 µM in experiment [4]; 0.866 µM in [5]; 3.85 µM in experiment [6]; 0.0323 µM in [7]. In addition, the results for the GI50 in experiment [8], in experiment [9] and in [10] were 0.152 µM, 0.334 µM and 0.0783 µM, respectively. For the same compound, the TGI in experiment [1] came out at 0.765 µM; in [3], 2.58 µM; in [4], 1.08 µM; in experiment [5], 22.8 µM; in experiment [6] it was 26.9 µM; in experiment [7], 10.2 µM. In addition, the TGI in experiment [8] came out at 1.61 µM; in experiment [9], 3.44 µM; in experiment [10] it was 1.1 µM.
